We go through 14 molecules from patent US20220009894A1, “1,2,3,4-TETRAHYDROQUINOXALINE DERIVATIVE, PREPARATION METHOD THEREFOR AND APPLICATION THEREOF” (Abbisko Therapeutics Co., Ltd., priority 2019, published 2022).

Assay [1] addresses T1, RORγt-LBD (Homo sapiens, UniProt P51449).
T1 sequence (P51449 269-508 limits assumed): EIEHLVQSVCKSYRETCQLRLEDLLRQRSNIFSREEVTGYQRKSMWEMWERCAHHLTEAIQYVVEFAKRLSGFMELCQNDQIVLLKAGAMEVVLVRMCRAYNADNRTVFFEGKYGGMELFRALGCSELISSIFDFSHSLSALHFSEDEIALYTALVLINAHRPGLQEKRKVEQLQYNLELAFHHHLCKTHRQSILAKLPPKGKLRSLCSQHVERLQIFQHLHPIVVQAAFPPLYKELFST
The assay can be described thus: Time-resolved fluorescence resonance energy-transfer assay (TR-FRET), co-activator peptide recruitment. It is filed as biochemical. Also on record: TR-FRET Biochemical Amax: unit not given here. As to conditions: for EC50: His-RORγt-LBD 30 nM, SRC peptide 500 nM, agonistic activity, averages of one or more measurements, read-out: TR-FRET Biochemical EC50/; for TR-FRET Biochemical Amax: upper activation limit, His-RORγt-LBD, SRC peptide. A digest of the protocol: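 This agonist-mode TR-FRET used 30 nM His-tagged RORγt-LBD, 500 nM biotinylated SRC peptide, 0.25 nM Eu-anti-His and 5 nM APC-streptavidin in pH 7.0 Tris/KCl buffer with DTT and Triton. A 7-concentration, 5-fold compound series was incubated at 4 °C overnight plus 1 h at room temperature, and the 665/615 nm signal was read.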

The target of assay [2] is T2, RORγt (Homo sapiens, UniProt P51449).
T2 construct: The plasmid of pFN26A-RORγt-LBD and pG14.35 (Promega, Cat. No. E1370) were co-transfected into HEK 293 cells; expressed in transfected cells; host or cells: HEK 293 cells (Cat. No. GNHu18)
T2 sequence (P51449 269-508 limits assumed): T1 sequence (P51449 269-508 limits assumed)
In words: RORγt cellular reporter gene detection assay.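 On Cellular Reporter Assay Amax: Ursolic Acid added as 5 µL of 20 µM medium per well.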 It is filed as cell-based. The settings on record: 24 hrs; for EC50: HEK 293 cells co-transfected with pFN26A-RORγt-LBD and pG14.35, in presence of antagonist Ursolic acid, top concentration 50 μM; for Cellular Reporter Assay Amax: upper activation limit, HEK 293 cells, in presence of antagonist Ursolic acid. A digest of the protocol:
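Compounds, titrated 4-fold from a 50 μM top concentration, were added with Ursolic acid to HEK293 cells carrying a RORγt-LBD plasmid and a reporter plasmid. After 24 h at 37° C, dual firefly/Renilla luciferase readout; four-parameter curves gave EC50 and maximal activation (Amax).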
In general terms: In a reporter assay the amount or activity of a reporter protein is the signal.

As for `O=C(O)CCOC1CCN2c3ccc(-c4cc(F)cc(OC(F)F)c4)cc3N(S(=O)(=O)c3cccc(C(F)(F)F)c3)C[C@@H]2C1` (stereo partly drawn) [Example 109, 3-(((6aS)-3-(3-(difluoromethoxy)-5-fluorophenyl)-5-((3-(trifluoromethyl)phenyl)sulfonyl)-6,6a,7,8,9,10-hexahydro-5H-pyrido[1,2-a]quinoxalin-8-yl)oxy)propanoic acid], in assay [1], the EC50 came out at 17.5 nM and the “TR-FRET Biochemical Amax” value was 0.65. In assay [2], the EC50 amounted to 468 nM and the “Cellular Reporter Assay Amax” value is reported as 5.9.

As for `CS(=O)(=O)COC1CCN2c3ccc(-c4cc(F)cc(OC(F)F)c4)cc3N(S(=O)(=O)c3cccc(C(F)(F)F)c3)C[C@@H]2C1` (stereo partly drawn) [Example 110, (6aS)-3-(3-(difluoromethoxy)-5-fluorophenyl)-8-((methylsulfonyl)methoxy)-5-((3-(trifluoromethyl)phenyl)sulfonyl)-6,6a,7,8,9,10-hexahydro-5H-pyrido[1,2-a]quinoxaline], in assay [1], the EC50 is 12.1 nM and the “TR-FRET Biochemical Amax” value turned out to be 0.76. In addition, in assay [2], the EC50 came to 214 nM and the “Cellular Reporter Assay Amax” value turned out to be 2.8.

Turning to `CS(=O)(=O)CCOC1CCN2c3ccc(-c4cc(F)cc(OC(F)F)c4)cc3N(S(=O)(=O)c3cccc(C(F)(F)F)c3)C[C@@H]2C1` (stereo partly drawn) [Example 111, (6aS)-3-(3-(difluoromethoxy)-5-fluorophenyl)-8-((methylsulfonyl)ethoxy)-5-((3-(trifluoromethyl)phenyl)sulfonyl)-6,6a,7,8,9,10-hexahydro-5H-pyrido[1,2-a]quinoxaline], in assay [1], the EC50 is 18.9 nM and the “TR-FRET Biochemical Amax” value is on record as 0.64. Also, in assay [2], the EC50 came to 564 nM and the “Cellular Reporter Assay Amax” value came out at 3.2.

Consider `O=S(=O)(c1cccc(C(F)(F)F)c1)N1C[C@@H]2CC(O[C@@H]3O[C@H](CO)[C@@H](O)[C@H](O)[C@H]3O)CCN2c2ccc(-c3cc(F)cc(OC(F)F)c3)cc21` (stereo partly drawn) [Example 112, (2R,3R,4S,5S,6R)-2-(((6aS)-3-(3-(difluoromethoxy)-5-fluorophenyl)-5-((3-(trifluoromethyl)phenyl)sulfonyl)-6,6a,7,8,9,10-hexahydro-5H-pyrido[1,2-a]quinoxalin-8-yl)oxy)-6-(hydroxymethyl)tetrahydro-2H-pyran-3,4,5-triol], for which, in assay [1], the EC50 was found to be 273 nM and the “TR-FRET Biochemical Amax” value is 0.33. In assay [2], the EC50 stood at 1940 nM and the “Cellular Reporter Assay Amax” value came to 5.6.

For `C[C@@]1(OCCC(=O)O)CCN2c3ccc(-c4cc(F)cc(OC(F)F)c4)cc3N(S(=O)(=O)c3cccc(C(F)(F)F)c3)C[C@@H]2C1` [Example 113, 3-(((6aS,8R)-3-(3-(difluoromethoxy)-5-fluorophenyl)-8-methy 1-5-((3-(trifluoromethyl)phenyl)sulfonyl)-6,6a,7,8,9,10-hexahydro-5H-pyrido[1,2-a]quinoxalin-8-yl)oxy)propanoic acid], in assay [1], the EC50 came to 21.9 nM and the “TR-FRET Biochemical Amax” value is recorded as 0.71. Also, in assay [2], the EC50 is 149 nM and the “Cellular Reporter Assay Amax” value came to 2.8.

With `C[C@]1(OCCC(=O)O)CCN2c3ccc(-c4cc(F)cc(OC(F)F)c4)cc3N(S(=O)(=O)c3cccc(C(F)(F)F)c3)C[C@@H]2C1` [Example 114, 3-(((6aS,8S)-3-(3-(difluoro-methoxy)-5-fluorophenyl)-8-methyl-5-((3-(trifluorometh-yl)phenyl)sulfonyl)-6,6a,7,8,9,10-hexahydro-5H-py-rido[1,2-a]quinoxalin-8-yl)oxy)propanoic acid], in assay [1], the EC50 amounted to 113 nM and the “TR-FRET Biochemical Amax” value came to 0.51. Further, in assay [2], the EC50 worked out at 969 nM and the “Cellular Reporter Assay Amax” value came to 5.3.

For the molecule `O=C(O)CCO[C@@H]1CCN2c3ccc(-c4cc(F)cc(OC(F)F)c4)cc3N(S(=O)(=O)c3cccc(C(F)(F)F)c3)C[C@@H]2C1` [Example 115, 3-(((6aS,8R)-3-(3-(difluorometh-oxy)-5-fluorophenyl)-5-((3-(tri-fluoromethyl)phenyl)sulfonyl)-6,6a,7,8,9,10-hexahydro-5H-pyrido[1,2-a]quinoxalin-8-yl)oxy)propanoic acid], in assay [1], the EC50 came out at 67.9 nM and the “TR-FRET Biochemical Amax” value turned out to be 0.71. Further, in assay [2], the EC50 was 178 nM and the “Cellular Reporter Assay Amax” value amounted to 5.4.

Take `O=C(O)[C@H]1CCN2c3ccc(-c4cc(F)cc(OC(F)F)c4)cc3N(S(=O)(=O)c3cccc(C(F)(F)F)c3)C[C@@H]2C1` [Example 116, (6aS,8S)-3-(3-(difluoromethoxy)-5-fluorophenyl)-5-((3-(trifluoromethyl)phenyl)sulfonyl)-6,6a,7,8,9,10-hexahydro-5H-pyrido[1,2-a]quinoxaline-8-carboxylic acid]: in assay [1], the EC50 worked out at 43.4 nM and the “TR-FRET Biochemical Amax” value was 0.65. In assay [2], the EC50 was 301 nM and the “Cellular Reporter Assay Amax” value was 5.4.

For the molecule `O=C(O)[C@@H]1CCN2c3ccc(-c4cc(F)cc(OC(F)F)c4)cc3N(S(=O)(=O)c3cccc(C(F)(F)F)c3)C[C@@H]2C1` [Example 117, (6aS,8R)-3-(3-(difluoromethoxy)-5-fluorophenyl)-5-((3-(trifluoro-methyl)phenyl)sulfonyl)-6,6a,7,8,9,10-hexahydro-5H-pyri-do[1,2-a]quinoxaline-8-car-boxylic acid], the EC50 in assay [1] was determined as 148 nM; in assay [2] it was 627 nM.

Consider `CN1c2ccc(C3=CC(C)(C)OC(C)(C)C3)cc2N(S(=O)(=O)c2cccc(C(F)(F)F)c2)C[C@@H]1CCC(=O)O` [Example 118, (S)-3-(1-methyl-6-(2,2,6,6-tetramethyl-3,6-dihydro-2H-pyran-4-yl)-4-((3-(trifluoromethyl)phenyl)sulfonyl)-1,2,3,4-tetrahydroquinoxalin-2-yl)propanoic acid], for which, in assay [1], the EC50 worked out at 204 nM and the “TR-FRET Biochemical Amax” value is 0.36. In assay [2], the EC50 came out at 223 nM and the “Cellular Reporter Assay Amax” value was found to be 1.0.

With `CN1c2ccc(C3CC(C)(C)OC(C)(C)C3)cc2N(S(=O)(=O)c2cccc(C(F)(F)F)c2)C[C@@H]1CCC(=O)O` [Example 119, (S)-3-(1-methyl-6-(2,2,6,6-tetramethyltetrahydro-2H-pyran-4-yl)-4-((3-(trifluoromethyl)phenyl)sulfonyl)-1,2,3,4-tetrahydroquinoxalin-2-yl)propanoic acid], in assay [1], the EC50 came out at 31.5 nM and the “TR-FRET Biochemical Amax” value was 0.41. For the same molecule, in assay [2], the EC50 was 295 nM and the “Cellular Reporter Assay Amax” value is on record as 1.1.

Take `COC(=O)CC[C@H]1CN(S(=O)(=O)c2cccc(C(F)(F)F)c2)c2cc(/C=C(\C)c3c(F)cccc3Cl)ccc2N1C` [Example 120, methyl (S,E)-3-(6-(2-(2-chloro-6-fluorophenyl)prop-1-en-1-yl)-1-methyl-4-((3-(trifluoromethyl)phenyl)sulfonyl)-1,2,3,4-tetrahydroquinoxalin-2-yl)propanoate]: in assay [1], the EC50 came out at 64.9 nM and the “TR-FRET Biochemical Amax” value stood at 1.07. Further, in assay [2], the EC50 is 157 nM and the “Cellular Reporter Assay Amax” value worked out at 5.7.

As for `C/C(=C\c1ccc2c(c1)N(S(=O)(=O)c1cccc(C(F)(F)F)c1)C[C@@H]1C[C@](C)(OCCC(=O)O)CCN21)c1c(F)cccc1Cl` [Example 121], in assay [1], the EC50 was 12.1 nM and the “TR-FRET Biochemical Amax” value came to 0.98. Also, in assay [2], the EC50 is 378 nM and the “Cellular Reporter Assay Amax” value was 2.4.

For the molecule `C[C@@]1(OCCC(N)=O)CCN2c3ccc(-c4cc(F)cc(OC(F)F)c4)cc3N(S(=O)(=O)c3cccc(C(F)(F)F)c3)C[C@@H]2C1` [Example 122, 3-(((6aS,8R)-3-(3-(difluoromethoxy)-5-fluorophenyl)-8-methyl-5-((3-(trifluoromethyl)phenyl)sulfo-nyl)-6,6a,7,8,9,10-hexahydro-5H-pyrido[1,2-a]quinoxalin-8-yl)oxy) propanamide], in assay [1], the EC50 came out at 98.4 nM and the “TR-FRET Biochemical Amax” value worked out at 0.68. Moreover, in assay [2], the EC50 amounted to 447 nM and the “Cellular Reporter Assay Amax” value came to 1.1.
